Molecular target: T1, Pif1 (Saccharomyces cerevisiae, UniProt P07271)
T1 sequence (P07271 46-859): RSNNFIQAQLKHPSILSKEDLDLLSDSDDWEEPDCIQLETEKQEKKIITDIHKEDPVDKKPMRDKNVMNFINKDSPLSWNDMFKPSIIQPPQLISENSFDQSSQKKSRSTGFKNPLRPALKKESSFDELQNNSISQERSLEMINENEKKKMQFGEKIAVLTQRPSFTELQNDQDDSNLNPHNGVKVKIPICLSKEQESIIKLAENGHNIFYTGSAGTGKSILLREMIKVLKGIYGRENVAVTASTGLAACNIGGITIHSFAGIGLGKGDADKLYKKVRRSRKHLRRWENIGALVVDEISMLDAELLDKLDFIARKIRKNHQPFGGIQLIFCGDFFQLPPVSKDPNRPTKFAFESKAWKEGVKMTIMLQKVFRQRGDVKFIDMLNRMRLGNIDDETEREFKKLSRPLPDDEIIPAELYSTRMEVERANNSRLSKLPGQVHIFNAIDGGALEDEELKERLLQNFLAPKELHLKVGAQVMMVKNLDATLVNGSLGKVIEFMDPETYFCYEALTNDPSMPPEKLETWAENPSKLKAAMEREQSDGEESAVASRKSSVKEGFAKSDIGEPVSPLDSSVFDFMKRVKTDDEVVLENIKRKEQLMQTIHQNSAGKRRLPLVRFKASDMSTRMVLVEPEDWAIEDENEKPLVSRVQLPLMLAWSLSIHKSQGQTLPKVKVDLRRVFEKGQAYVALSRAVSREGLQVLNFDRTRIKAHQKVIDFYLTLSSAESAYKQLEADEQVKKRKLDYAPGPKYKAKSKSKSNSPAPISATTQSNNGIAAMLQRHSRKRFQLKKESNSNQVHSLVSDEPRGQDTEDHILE
Test: stopped-flow Cy3 fluorescence, dissociation of pre-formed Pif1-dT20-Cy3 complex
Assay type: binding
Details: Buffer T200 (200 mM NaCl, pH 8.3, 5 mM MgCl2), 22°C; 1 mM ADP, 0.1 mg/ml heparin

SMILES: Nc1ncnc2c1ncn2[C@@H]1O[C@H](COP(=O)(O)OP(=O)(O)O)[C@@H](O)[C@H]1O [ADP]
- apparent rate of dissociation: This is true also for ADP, the product of ATP hydrolysis (Figure 1b, green)
